In US20140371237A1, “p19Arf, HMGA2 and MDM2 For Use in the Diagnosis and Treatment of Aberrant Cell Growth” (University of Bremen, priority 2010, published 2014):

How the values were obtained:
[1] = tested on: leiomyoma explants and matching myometrium; assay: Nutlin-3 sensitivity of leiomyoma explants compared with matching myometrium (qRT-PCR p21, BAX); type: cell-based, human
Text: As disclosed herein and in [7], leiomyomas show elevated levels of p14^Arf mRNA compared to myometrium resulting from a negative feedback-loop between p53 and MDM2 which in turn results in an activation of MDM2. Furthermore, without intending to be bound by theory, it was hypothesized herein and in [11] that within the p14^Arf-driven pathway a delicate balance between p53 and MDM2 assures the proliferative activity of leiomyomas as well as their genomic integrity. Accordingly, it can be speculated that leiomyomas may be more sensitive against MDM2 inhibition than matching myometrium.
(§1) Altogether, tissue samples of 36 patients have been investigated herein; see Table 1 in FIGS. 20A and 20B. The study was approved by the local ethics committee and prior to surgery; informed written consent was obtained from all patients. For gene expression studies samples of 52 UL from 31 patients along with matching myometrium were taken during surgery, immediately frozen in liquid nitrogen, and stored at −80° C. for RNA isolation and qRT-PCR analyses of p14^Arf. For MDM2 inhibition six tissue samples of UL from four patients as well as matching myometrium were taken during surgery and immediately transferred into sterile Hank's solution.
(§2) […] As controls tissue explants were incubated in medium 199 supplemented with 20% FCS without nutlin-3 for 72 h.
(§3) About 250 ng of total RNA were reverse transcribed with 200 U/μl of M-MLV reverse transcriptase (Invitrogen, Karlsruhe, Germany), RNase Out, 150 ng random hexamers and 10 mM dNTPs according to the manufacturer's instructions. RNA was denatured at 65° C. for 5 min and subsequently kept on ice for 1 min. After adding the enzyme to the RNA primer mixes, samples were incubated for 10 min at 25° C. to allow annealing of the random hexamers. Reverse transcription was performed at 37° C. for […] followed by inactivation of the reverse transcriptase at 70° C. for 15 min.
(§4) Relative quantification of transcription levels was carried out by real-time PCR analyses using the Applied Biosystems 7300 real-time PCR system (Applied Biosystems, Darmstadt, Germany). Commercially available gene expression assays (Applied Biosystems, Darmstadt, Germany) were used for quantification of mRNA of human p14^Arf (Hs00924091), BAX (Hs00180269_m1), CDKN1A (Hs 99999142), and MKI67 (Hs00606991_m1). HPRT served as endogenous control. All qRT-PCR experiments were done in triplicate.

[2] = tested on: tissue explants from leiomyomas; assay: qRT-PCR of p21, BAX and Ki-67 in tissue explants from leiomyomas incubated with nutlin-3; type: cell-based, human
Procedure: as §1, §2, §3, §4

[3] = explants from four leiomyomas, 3 μM and 10 μM, 72 h, compared to controls
[4] = six days, three UL along with matching myometrium, dose-dependent

Structure (SMILES): COc1ccc(C2=N[C@@H](c3ccc(Cl)cc3)[C@@H](c3ccc(Cl)cc3)N2C(=O)N2CCNC(=O)C2)c(OC(C)C)c1 [nutlin-3]
- BAX expression, sensitivity of leiomyoma explants versus matching myometrium ([1]; 3 μM and 10 μM, 72 h): generally higher sensitivity of the leiomyoma explants
- p21 expression in fibroids versus matching myometrial tissue ([1]; 3 μM and 10 μM, 72 h, all tissue explants treated): exceeded that seen in the matching myometrial tissue
- BAX expression, myometrium versus leiomyoma, exceptional cases ([1]; cases 683 and 687, 10 μM, 72 h): the expression in the myometrium exceeded that of the leiomyoma
- sensitivity of the myometrium to the MDM2 inhibition versus matching fibroids ([1]; six days): reduced sensitivity
- expression of BAX [2, 3]: concentration-dependent highly significant (p<0.01 or p<0.001, respectively) increases
- expression of Ki-67 [2, 3]: strongly decreased
- expression of p21 [2, 3]: concentration-dependent highly significant (p<0.01 or p<0.001, respectively) increases
- expression of Ki-67, one exceptional case ([2]; one leiomyoma explant, 3 μM, 72 h): an increase of Ki-67 expression was noted
- expression of BAX [2, 4]: significant increase
- expression of Ki-67 [2, 4]: decreased expression
- expression of p21 [2, 4]: significant increase
